{"source": "patent US12534456B2", "about": "“Heterocyclyl pyridines as novel fungicides” (Bayer Aktiengesellschaft, priority 2020, dated 2026)", "data": [{"assay": "physchem", "format": "physicochemical", "conditions": "not given", "protocol": "(§1) Measurement of Log P values as provided herein was performed according to EEC directive 79/831 Annex V.A8 by HPLC (High Performance Liquid Chromatography) on reversed phase columns with the following methods: • ^[a]\n(§2) If more than one Log P value is available within the same method, all the values are given and separated by “+”.\n(§3) Lambda-max-values were determined using UV-spectra from 200 nm to 400 nm and the peak values of the chromatographic signals", "values": [{"compound": "CC1ON=C(c2cc(Cl)ncc2Oc2cccc(C(F)(F)F)c2)NC1c1ccc(Cl)cc1", "note": "(mixture of isomers) [Compound I-042]", "LogP": "4.19^[a]"}, {"compound": "FC1ON=C(c2cc(Cl)ncc2Oc2cccc(C(F)(F)F)c2)NC1c1ccc(Cl)cc1", "note": "(mixture of isomers) [Compound I-051]", "LogP": "3.33^[a]"}, {"compound": "CC(=O)OC1ON=C(c2cc(Cl)ncc2Oc2cccc(C(F)(F)F)c2)NC1c1ccc(Cl)cc1", "note": "(mixture of isomers) [Compound I-073]", "LogP": "4.08^[a]"}, {"compound": "CCC1ON=C(c2cc(Cl)ncc2Oc2cccc(C(F)(F)F)c2)NC1c1ccc(OC)cc1", "note": "(mixture of isomers) [Compound I-122]", "LogP": "4.07^[a]"}, {"compound": "FC(F)(F)c1cccc(Oc2cnc(Cl)cc2C2=NOC(C3CC3)C(c3ccc(Cl)cc3)N2)c1", "note": "(mixture of isomers) [Compound I-139]", "LogP": "4.47^[a]"}, {"compound": "Cc1ccc(CC2CON=C(c3cc(Cl)ncc3Oc3cccc(C4CC4F)c3)N2)c(C)c1", "note": "(mixture of isomers) [Compound I-143]", "LogP": "4.38^[a]"}, {"compound": "Cc1ccc(CC2CON=C(c3cc(Cl)ncc3Oc3cccc(Cl)c3)N2)c(C)c1", "note": "(racemic) [Compound I-002]", "LogP": "4.51^[a]"}, {"compound": "Cc1ccc(CC2CON=C(c3cc(Cl)ncc3Oc3cccc(C(F)F)c3)N2)c(C)c1", "note": "(racemic) [Compound I-003]", "LogP": "4.08^[a]"}, {"compound": "FC(F)c1cccc(Oc2cnc(Cl)cc2C2=NOCC(Cc3ccc(Br)cc3Cl)N2)c1", "note": "(racemic) [Compound I-004]", "LogP": "4.32^[a]"}, {"compound": "COc1cccc(Oc2cnc(Cl)cc2C2=NOCC(Cc3ccc(C)cc3C)N2)c1", "note": "(racemic) [Compound I-005]", "LogP": "4.18^[a]"}, {"compound": "COc1cccc(Oc2cnc(Cl)cc2C2=NOCC(Cc3ccc(Br)cc3Cl)N2)c1", "note": "(racemic) [Compound I-006]", "LogP": "4.37^[a]"}, {"compound": "Cc1cccc(Oc2cnc(Cl)cc2C2=NOCC(Cc3ccc(C)cc3C)N2)c1", "note": "(racemic) [Compound I-007]", "LogP": "4.55^[a]"}, {"compound": "Cc1cccc(Oc2cnc(C)cc2C2=NOCC(Cc3ccc(C)cc3C)N2)c1", "note": "(racemic) [Compound I-008]", "LogP": "3.61^[a]"}, {"compound": "COc1cccc(Oc2cnc(C)cc2C2=NOCC(Cc3ccc(C)cc3C)N2)c1", "note": "(racemic) [Compound I-009]", "LogP": "3.29^[a]"}, {"compound": "Cc1ccc(CC2CON=C(c3cc(C)ncc3Oc3cccc(C(F)F)c3)N2)c(C)c1", "note": "(racemic) [Compound I-010]", "LogP": "3.41^[a]"}, {"compound": "Cc1ccc(CC2CON=C(c3cc(Cl)ncc3Oc3cccc(C4CC4)c3)N2)c(C)c1", "note": "(racemic) [Compound I-013]", "LogP": "4.89^[a]"}, {"compound": "Cc1ccc(CC2CON=C(c3cc(Cl)ncc3Oc3cccc(C4CC4)c3F)N2)c(C)c1", "note": "(racemic) [Compound I-014]", "LogP": "4.89^[a]"}, {"compound": "Cc1ccc(CC2CON=C(c3cc(C)ncc3Oc3cccc(C4CC4)c3)N2)c(C)c1", "note": "(racemic) [Compound I-015]", "LogP": "3.94^[a]"}, {"compound": "Cc1ccc(CC2CON=C(c3cc(C4CC4)ncc3Oc3cccc(C4CC4)c3)N2)c(C)c1", "note": "(racemic) [Compound I-016]", "LogP": "4.87^[a]"}, {"compound": "Cc1ccc(CC2CON=C(c3cc(C)ncc3Oc3cccc(C4CC4)c3F)N2)c(C)c1", "note": "(racemic) [Compound I-017]", "LogP": "4.03^[a]"}, {"compound": "Cc1ccc(CC2CON=C(c3cc(C)ncc3Oc3cccc(Cl)c3)N2)c(C)c1", "note": "(racemic) [Compound I-018]", "LogP": "3.76^[a]"}, {"compound": "Fc1c(Oc2cnc(Cl)cc2C2=NOCC(Cc3ccc(Br)cc3Cl)N2)cccc1C1CC1", "note": "(racemic) [Compound I-023]", "LogP": "5.11^[a]"}, {"compound": "Fc1c(Oc2cnc(Cl)cc2C2=NOCC(Cc3ccc(Cl)cc3Cl)N2)cccc1C1CC1", "note": "(racemic) [Compound I-024]", "LogP": "4.98^[a]"}, {"compound": "Clc1ccc(CC2CON=C(c3cc(Cl)ncc3Oc3cccc(C4CC4)c3)N2)c(Cl)c1", "note": "(racemic) [Compound I-025]", "LogP": "4.98^[a]"}, {"compound": "Clc1cc(C2=NOCC(Cc3ccc(Br)cc3Cl)N2)c(Oc2cccc(C3CC3)c2)cn1", "note": "(racemic) [Compound I-026]", "LogP": "5.16^[a]"}, {"compound": "CCc1cc(C2=NOCC(Cc3ccc(C)cc3C)N2)c(Oc2cccc(C3CC3)c2)cn1", "note": "(racemic) [Compound I-027]", "LogP": "4.40^[a]"}, {"compound": "Cc1cc(C2=NOCC(Cc3ccc(Cl)cc3Cl)N2)c(Oc2cccc(C3CC3)c2)cn1", "note": "(racemic) [Compound I-028]", "LogP": "4.08^[a]"}, {"compound": "Cc1ccc(CC2CON=C(c3cc(C)ncc3Oc3cccc(C4CC4)c3)N2)c(Cl)c1", "note": "(racemic) [Compound I-030]", "LogP": "3.98^[a]"}, {"compound": "Cc1ccc(CC2CON=C(c3cc(C)ncc3Oc3cccc(C4CC4)c3F)N2)c(Cl)c1", "note": "(racemic) [Compound I-031]", "LogP": "4.08^[a]"}, {"compound": "Cc1ccc(CC2CON=C(c3cc(Cl)ncc3Oc3cccc(C)c3F)N2)c(C)c1", "note": "(racemic) [Compound I-032]", "LogP": "4.59^[a]"}, {"compound": "Cc1ccc(CC2CON=C(c3cc(C(F)(F)F)ncc3Oc3cccc(C4CC4)c3F)N2)c(C)c1", "note": "(racemic) [Compound I-033]", "LogP": "5.20^[a]"}, {"compound": "Cc1ccc(CC2CON=C(c3cc(Cl)ncc3Oc3cccc(OC(F)F)c3F)N2)c(C)c1", "note": "(racemic) [Compound I-035]", "LogP": "4.23^[a]"}, {"compound": "Cc1ccc(CC2CON=C(c3cc(Cl)ncc3Oc3ccc4c(c3)CC4)N2)c(C)c1", "note": "(racemic) [Compound I-036]", "LogP": "4.88^[a]"}, {"compound": "Cn1cc(-c2ccc(CC3CON=C(c4cc(Cl)ncc4Oc4cccc(C(F)F)c4)N3)c(Cl)c2)cn1", "note": "(racemic) [Compound I-037]", "LogP": "3.37^[a]"}, {"compound": "CC(=O)c1ccc(CC2CON=C(c3cc(Cl)ncc3Oc3cccc(C(F)F)c3)N2)c(Cl)c1", "note": "(racemic) [Compound I-038]", "LogP": "3.47^[a]"}, {"compound": "C=Cc1ccc(CC2CON=C(c3cc(Cl)ncc3Oc3cccc(C(F)F)c3)N2)c(Cl)c1", "note": "(racemic) [Compound I-040]", "LogP": "4.29^[a]"}, {"compound": "CC1(C)ON=C(c2cc(Cl)ncc2Oc2cccc(C(F)(F)F)c2)NC1c1ccc(F)cc1F", "note": "(racemic) [Compound I-043]", "LogP": "4.30^[a]"}, {"compound": "FC(F)(F)c1cccc(Oc2cnc(Cl)cc2C2=NOCC(c3ccc4c(c3)CCO4)N2)c1", "note": "(racemic) [Compound I-044]", "LogP": "3.57^[a]"}, {"compound": "COc1ccc(C2CON=C(c3cc(Cl)ncc3Oc3cccc(C(F)(F)F)c3)N2)cc1", "note": "(racemic) [Compound I-045]", "LogP": "3.60^[a]"}, {"compound": "FC(F)(F)c1cccc(Oc2cnc(Cl)cc2C2=NOCC(C3(c4ccccc4)CC3)N2)c1", "note": "(racemic) [Compound I-046]", "LogP": "4.21^[a]"}, {"compound": "Cc1ccc(C2CON=C(c3cc(Cl)ncc3Oc3cccc(C(F)(F)F)c3)N2)cc1", "note": "(racemic) [Compound I-048]", "LogP": "3.96^[a]"}, {"compound": "Cc1ccc(C2CON=C(c3cc(Cl)ncc3Oc3cccc(C(F)(F)F)c3)N2)cc1C", "note": "(racemic) [Compound I-049]", "LogP": "4.24^[a]"}, {"compound": "FC(F)(F)c1cccc(Oc2cnc(Cl)cc2C2=NOCC(c3ccc(Cl)cc3)N2)c1", "note": "(racemic) [Compound I-050]", "LogP": "3.99^[a]"}, {"compound": "FC(F)(F)c1cccc(Oc2cnc(Cl)cc2C2=NOCC(c3ccc4c(c3)OCCO4)N2)c1", "note": "(racemic) [Compound I-052]", "LogP": "3.48^[a]"}, {"compound": "FC(F)(F)c1cccc(Oc2cnc(Cl)cc2C2=NOCC(c3ccc4ccccc4c3)N2)c1", "note": "(racemic) [Compound I-053]", "LogP": "4.20^[a]"}, {"compound": "FC(F)(F)c1cccc(Oc2cnc(Cl)cc2C2=NOCC(c3ccc4c(c3)CCC4)N2)c1", "note": "(racemic) [Compound I-054]", "LogP": "4.41^[a]"}, {"compound": "FC(F)(F)Oc1ccc(C2CON=C(c3cc(Cl)ncc3Oc3cccc(C(F)(F)F)c3)N2)cc1", "note": "(racemic) [Compound I-055]", "LogP": "4.26^[a]"}]}, {"assay": "physchem", "format": "physicochemical", "conditions": "Table 7, compounds of formula (3); method [a]", "protocol": "as §1, §2, §3", "values": [{"compound": "Cc1ccc(CC(CON2C(=O)c3ccccc3C2=O)NC(=O)c2cc(Cl)ncc2Oc2cccc(C(F)(F)F)c2)c(C)c1", "note": "(racemic) [Compound 3-01, 2-chloro-N-{(2RS)-1-(2,4-dimethylphenyl)-3-[(1,3-dioxo-1,3-dihydro-2H-isoindol-2-yl)oxy]propan-2-yl}-5-[3-(trifluoromethyl)phenoxy]isonicotinamide]", "chromatographic logP": 5.14}]}, {"assay": "physchem", "format": "physicochemical", "conditions": "Table 9, compounds of formula (4a)/(4b); method [a]", "protocol": "as §1, §2, §3", "values": [{"compound": "Cc1ccc(CC(CON)NC(=O)c2cc(Cl)ncc2Oc2cccc(C(F)(F)F)c2)c(C)c1", "note": "(racemic) [Compound 4-01, N-[(2RS)-1-(aminooxy)-3-(2,4-dimethylphenyl)propan-2-yl]-2-chloro-5-[3-(trifluoromethyl)phenoxy]isonicotinamide]", "chromatographic logP": 3.48}]}, {"assay": "physchem", "format": "physicochemical", "conditions": "Table 11, compounds of formula (6); method [a]: LC-UV, acidic range, 0.1% formic acid in water and acetonitrile", "protocol": "as §1, §2, §3", "values": [{"compound": "Cc1ccc(CC(CON)NC(=O)c2cc(C(F)(F)F)ncc2Br)c(C)c1", "note": "(racemic) [Compound 6-03, N-[(2RS)-1-(aminooxy)-3-(2,4-dimethylphenyl)propan-2-yl]-5-bromo-2-(trifluoromethyl)isonicotinamide]", "chromatographic logP": 2.51}, {"compound": "Cc1ccc(CC(CON2C(=O)c3ccccc3C2=O)NC(=O)c2cc(C(F)(F)F)ncc2Br)c(C)c1", "note": "(racemic) [Compound 6-04, 5-bromo-N-{(2RS)-1-(2,4-dimethylphenyl)-3-[(1,3-dioxo-1,3-dihydro-2H-isoindol-2-yl)oxy]propan-2-yl}-2-(trifluoromethyl)isonicotinamide]", "chromatographic logP": 4.4}]}, {"assay": "physchem", "format": "physicochemical", "conditions": "Table 13, compounds of formula (7); method [a]", "protocol": "as §1, §2, §3", "values": [{"compound": "Cc1ccc(CC2CON=C(c3ccncc3Br)N2)cc1", "note": "(racemic) [Compound 7-02, (5RS)-3-(3-bromopyridin-4-yl)-5-(4-methylbenzyl)-5,6-dihydro-4H-1,2,4-oxadiazine]", "chromatographic logP": 2.31}, {"compound": "Cc1ccc(CC2CON=C(c3cc(C(F)(F)F)ncc3Br)N2)c(C)c1", "note": "(racemic) [Compound 7-03, (5RS)-3-[5-bromo-2-(trifluoromethyl)pyridin-4-yl]-5-(2,4-dimethylbenzyl)-5,6-dihydro-4H-1,2,4-oxadiazine]", "chromatographic logP": 2.43}]}, {"assay": "physchem", "format": "physicochemical", "conditions": "Table 22, compounds of formula (17); method [a]", "protocol": "as §1, §2, §3", "values": [{"compound": "Cc1ccc(CC(CCl)NC(=O)c2ccncc2Br)cc1", "note": "(racemic) [Compound 17-01, 3-bromo-N-[(2RS)-1-chloro-3-(4-methylphenyl)propan-2-yl]isonicotinamide]", "chromatographic logP": 2.8}]}, {"assay": "physchem", "format": "physicochemical", "conditions": "Table 24, compounds of formula (18); method [a]", "protocol": "as §1, §2, §3", "values": [{"compound": "Cc1ccc(CC(CCl)NC(=NO)c2ccncc2Br)cc1", "note": "(racemic) [Compound 18-01, 3-bromo-N-[(2RS)-1-chloro-3-(4-methylphenyl)propan-2-yl]-N′-hydroxypyridine-4-carboximidamide]", "chromatographic logP": 2.78}]}]}
